Experimental findings from patent US20220241208A1, “PHARMACEUTICAL COMPOSITIONS FOR THE TREATMENT OF HBV” (priority 2019, published 2022) are described below.

The structures appear in SMILES notation.

Data set [1] relates to HBV. As to the kind of experiment: Study 211: open-label extension study of Compound 1 + Nrtl combination therapy. Details: species or system human. The note with it: in vivo. From the text: Compound 1 was investigated in an open-label, extension study (Study 211) to evaluate the safety and efficacy of combination therapy and Compound 1's effect on sustained viral response biomarkers. […] Study 211 utilized the four assays described in Studies 201 and 202.
Participants with chronic HBV who were currently not being treated received Compound 1 along with SOC NUC (entecavir [ETV]) tablets orally for 24 weeks. Eligible participants entered a separate extension study after Week 24 to continue open-label Compound 1 for up to an additional year.

The nature of data set [2]: SGF/FaSSIF two-stage gastric transfer non-sink dissolution test. It counts as physicochemical. Particulars: dosed dry (SDD dry powder or API), 30 min SGF, then FaSSIF pH 6.8. The method, then: In-vitro drug dissolution performance for each SDD prepared in Example 1 and described in Table 1 (i.e., Formulations 1-4) was evaluated by a two-stage gastric transfer non-sink dissolution test, which stimulates pH and bile salt concentrations for both gastric and intestinal exposure. A drug product sample start in 0.1N HCl(aq) (simulated gastric fluid or SGF) for 30 minutes at which point an equal volume of concentrated fasted-state simulated intestinal fluid (FaSSIF) is added to the SGF, resulting in a final pH of 6.8 in FaSSIF (100 mM PBS, 2.24 mg/mL SIF, Biorelevant Inc.).
The dissolution performance of the SDDs of Formulations 1-4 and crystalline Compound 1 was tested. The dissolution test is used to measure the supersaturation of drug above the bulk crystalline Compound 1 solubility in biorelevant intestinal media (FaSSIF) after 30 minutes exposure to a low-pH environment (SGF). During the test, samples were transferred from SGF [theoretical Cmax=1000 μA/mL] to FaSSIF SGF [theoretical Cmax=500 μA/mL].
The dissolution performance of the jet-milled material and crystalline Compound 1 was tested in a non-sink dissolution test, to measure the supersaturation of the drug above the bulk crystalline Compound 1 solubility in biorelevant intestinal media (FaSSIF) after 30 minutes exposure to a low-pH environment (SGF). During the test, samples were transferred from SGF to FaSSIF SGF. […]

The subject of data set [3] is HBV. As to the kind of experiment: Study 202: Compound 1+ETV vs placebo+ETV in treatment-naive HBeAg positive viremic chronic hepatitis B subjects. In kind it is in vivo, human. The note with it: Tx naïve HBeAg+ subjects. The method, then:
In this study (also referred to as study 202), 25 treatment-naive HBeAg positive […] subjects are randomized 1:1 (Group 1: […] FIG. 1 depicts a flow chart of the study. […] Subjects (Group 2) with chronic HBV who are currently not being treated receive matching placebo along with SOC NUC (entecavir [ETV]) tablets orally for 24 weeks. Subjects receive SOC NUC (0.5 mg QD of ETV) orally as per approved package insert and matching QD placebo tablets orally. […] Subjects return to the clinic at weeks (wk) 2 and 4 and then monthly up to wk 24. Clinical labs, safety and PK are monitored, as well as HBV biomarkers including HBV DNA, HBV RNA, HBsAg and HBeAg. At weeks 12 and 24, longitudinal serum samples are assayed for detectable virus. Compound 1 is abbreviated as C1 in the tables and figures.

The mark [4] stands for this setting: listed as Crystalline Compound 1.

In the case of `O=C(NCc1cnc(C(F)(F)F)s1)c1ccc2c(c1)NC(=O)c1ccccc1S2(=O)=O` [Compound 1, 11-oxo-N-((2-(trifluoromethyl)thiazol-5-yl)methyl)-10,11-dihydrodibenzo[b,f][1,4]thiazepine-8-carboxamide 5,5-dioxide], the “effect on pgRNA levels” value in the data set on HBV [1] is “multi-log reduction in pgRNA levels”.
Turning to `O=C(NCc1cnc(C(F)(F)F)s1)c1ccc2c(c1)NC(=O)c1ccccc1S2(=O)=O` [Compound 1-Jet Mill, 11-oxo-N-((2-(trifluoromethyl)thiazol-5-yl)methyl)-10,11-dihydrodibenzo[b,f][1,4]thiazepine-8-carboxamide 5,5-dioxide], in data set [2], the “AUC35-210FaSSIF (area under the curve after transfer to FaSSIF from 35 to 210 minutes)” value (“AUC35-210FaSSIF” for short) is 5400 min * μgA/mL, the “C210 (drug concentration at 180 minutes after transfer to FaSSIF)” value is listed as 29.6 μgA/mL and the “Cmax FaSSIF (maximum drug concentration after transfer to FaSSIF)” value (from here on “Cmax FaSSIF”) is listed as 38.0 μgA/mL.
As for `C=C1[C@H](CO)[C@@H](O)C[C@@H]1n1cnc2c(=O)[nH]c(N)nc21` [ETV, entecavir], in the data set with HBV [3] (Week 12), the “HBV DNA mean log10 decline” value turned out to be 3.29 log10 IU/mL and the “HBV RNA mean log10 decline” value amounted to 0.44 log10 copies/mL. In addition, in the data set with HBV [3] (Week 24), the “HBV DNA mean log10 decline” value came to 3.99 log10 IU/mL and the “HBV RNA mean log10 decline” value is 0.61 log10 copies/mL.
Turning to `O=C(NCc1cnc(C(F)(F)F)s1)c1ccc2c(c1)NC(=O)c1ccccc1S2(=O)=O` [Formulation 5, 11-oxo-N-((2-(trifluoromethyl)thiazol-5-yl)methyl)-10,11-dihydrodibenzo[b,f][1,4]thiazepine-8-carboxamide 5,5-dioxide], in data set [2], the “AUC35-210FaSSIF” value came to 5300 min * μgA/mL, the “C210 (drug concentration at 180 minutes after transfer to FaSSIF)” value came out at 27.6 μgA/mL and the “Cmax FaSSIF” value was found to be 33.4 μgA/mL. In data set [2] (setting [4]), the “AUC35-210FaSSIF” value is listed as 5300 min * μgA/mL and the “Cmax FaSSIF” value amounted to 33.4 μgA/mL.
